Columns and labels:
Melanocortin receptor 3 = Melanocortin receptor 3 (Homo sapiens, UniProt P41968); format: cell membranes, HEK293, Membrane; conditions: hek293; also: in other assays of this panel Not Active means under 50% inhibition at 10 µM
[1] = DRUGMATRIX: Glutamate, NMDA, Phencyclidine radioligand binding (ligand: [3H] TCP); format: cell membranes, Rattus norvegicus, Wistar, Cerebral cortex, Membrane; conditions: Not Active = under 50% inhibition at 10 µM
Substance-K receptor = target: T1, Substance-K receptor (Homo sapiens, UniProt P21452); format: cell membranes, CHO, Membrane; conditions: cho; also: in other assays of this panel Not Active means under 50% inhibition at 10 µM
T1 sequence (P21452 whole entry): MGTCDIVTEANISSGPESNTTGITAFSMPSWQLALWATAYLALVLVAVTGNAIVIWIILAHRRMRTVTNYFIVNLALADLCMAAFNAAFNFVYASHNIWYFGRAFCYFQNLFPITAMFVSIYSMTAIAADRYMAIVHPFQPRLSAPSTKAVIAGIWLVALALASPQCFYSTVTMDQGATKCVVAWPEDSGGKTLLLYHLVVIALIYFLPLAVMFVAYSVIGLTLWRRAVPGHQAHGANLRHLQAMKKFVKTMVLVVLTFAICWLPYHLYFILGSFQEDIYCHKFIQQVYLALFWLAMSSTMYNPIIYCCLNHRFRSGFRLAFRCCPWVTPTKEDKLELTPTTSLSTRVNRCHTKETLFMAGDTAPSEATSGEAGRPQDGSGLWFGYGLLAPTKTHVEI

[2] = DRUGMATRIX: Interleukin IL-1 radioligand binding (ligand: [125I] interleukin 1beta); format: cell membranes, Membrane; conditions: nih3t3; Not Active = under 50% inhibition at 10 µM
[3] = target: Tyrosine-protein kinase Lck (Homo sapiens, UniProt P06239); assay: DRUGMATRIX: Protein Tyrosine Kinase, LCK enzyme inhibition (substrate: Poly(Glu:Tyr)); format: cell-based, Insect cells; conditions: insect cells; Not Active = under 50% inhibition at 10 µM
Cytochrome P450 1A2 = target: T2, Cytochrome P450 1A2 (Homo sapiens, UniProt P05177); conditions: bti-tn-5b1-4; also: in other assays of this panel Not Active means under 50% inhibition at 10 µM
T2 sequence (P05177 whole entry): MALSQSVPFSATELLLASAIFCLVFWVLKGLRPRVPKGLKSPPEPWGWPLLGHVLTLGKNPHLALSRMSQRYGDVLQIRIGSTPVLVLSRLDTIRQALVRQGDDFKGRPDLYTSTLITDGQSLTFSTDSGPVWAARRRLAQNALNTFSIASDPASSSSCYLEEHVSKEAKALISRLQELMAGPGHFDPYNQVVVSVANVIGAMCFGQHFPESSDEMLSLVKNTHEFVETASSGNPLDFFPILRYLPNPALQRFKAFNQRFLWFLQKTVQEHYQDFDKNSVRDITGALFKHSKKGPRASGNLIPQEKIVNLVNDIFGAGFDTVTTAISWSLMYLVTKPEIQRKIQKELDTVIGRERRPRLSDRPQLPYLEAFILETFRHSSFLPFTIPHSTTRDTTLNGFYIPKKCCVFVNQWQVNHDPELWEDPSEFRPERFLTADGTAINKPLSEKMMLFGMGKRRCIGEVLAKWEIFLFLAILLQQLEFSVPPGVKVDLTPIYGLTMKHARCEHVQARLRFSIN

[4] = target: T3, Neuropeptide Y receptor type 1 (Homo sapiens, UniProt P25929); format: cell membranes, Membrane; conditions: sk-n-mc; also: in other assays of this panel Not Active means under 50% inhibition at 10 µM
T3 sequence (P25929 whole entry): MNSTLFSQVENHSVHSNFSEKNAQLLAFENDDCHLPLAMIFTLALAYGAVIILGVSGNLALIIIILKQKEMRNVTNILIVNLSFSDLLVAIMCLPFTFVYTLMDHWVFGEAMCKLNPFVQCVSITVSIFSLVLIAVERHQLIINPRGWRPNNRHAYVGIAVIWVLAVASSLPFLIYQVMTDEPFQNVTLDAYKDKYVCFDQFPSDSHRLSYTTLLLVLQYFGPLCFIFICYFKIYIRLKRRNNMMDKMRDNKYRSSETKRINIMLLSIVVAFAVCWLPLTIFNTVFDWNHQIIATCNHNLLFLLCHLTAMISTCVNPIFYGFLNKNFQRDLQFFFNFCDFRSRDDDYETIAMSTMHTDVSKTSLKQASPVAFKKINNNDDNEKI

[5] = target: T4, Muscarinic acetylcholine receptor M4 (Homo sapiens, UniProt P08173); format: cell membranes, CHO-K1, Membrane; conditions: cho-k1; also: in other assays of this panel Not Active means under 50% inhibition at 10 µM
T4 sequence (P08173 whole entry): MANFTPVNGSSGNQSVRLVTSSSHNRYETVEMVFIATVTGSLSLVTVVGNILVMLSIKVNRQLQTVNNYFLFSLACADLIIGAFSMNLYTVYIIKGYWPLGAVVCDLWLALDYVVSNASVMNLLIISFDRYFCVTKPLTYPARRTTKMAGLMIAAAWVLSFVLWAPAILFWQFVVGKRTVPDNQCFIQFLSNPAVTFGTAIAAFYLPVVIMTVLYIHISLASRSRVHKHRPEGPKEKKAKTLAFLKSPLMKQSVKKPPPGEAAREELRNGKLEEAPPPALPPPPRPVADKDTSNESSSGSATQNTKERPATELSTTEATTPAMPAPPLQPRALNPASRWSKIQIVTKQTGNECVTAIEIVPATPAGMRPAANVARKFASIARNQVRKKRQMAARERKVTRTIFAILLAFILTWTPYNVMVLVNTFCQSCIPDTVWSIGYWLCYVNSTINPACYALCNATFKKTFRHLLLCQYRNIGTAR

Melanocortin receptor 3, sequence (P41968 whole entry): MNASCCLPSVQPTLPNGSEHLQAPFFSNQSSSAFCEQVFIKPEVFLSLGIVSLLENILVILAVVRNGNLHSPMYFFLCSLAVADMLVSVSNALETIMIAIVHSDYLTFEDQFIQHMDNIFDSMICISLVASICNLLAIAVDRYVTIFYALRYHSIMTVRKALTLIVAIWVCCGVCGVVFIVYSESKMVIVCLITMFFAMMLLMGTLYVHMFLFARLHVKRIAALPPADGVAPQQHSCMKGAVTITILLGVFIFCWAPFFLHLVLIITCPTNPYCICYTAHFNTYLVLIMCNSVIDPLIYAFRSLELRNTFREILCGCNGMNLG
Tyrosine-protein kinase Lck, sequence (P06239 whole entry): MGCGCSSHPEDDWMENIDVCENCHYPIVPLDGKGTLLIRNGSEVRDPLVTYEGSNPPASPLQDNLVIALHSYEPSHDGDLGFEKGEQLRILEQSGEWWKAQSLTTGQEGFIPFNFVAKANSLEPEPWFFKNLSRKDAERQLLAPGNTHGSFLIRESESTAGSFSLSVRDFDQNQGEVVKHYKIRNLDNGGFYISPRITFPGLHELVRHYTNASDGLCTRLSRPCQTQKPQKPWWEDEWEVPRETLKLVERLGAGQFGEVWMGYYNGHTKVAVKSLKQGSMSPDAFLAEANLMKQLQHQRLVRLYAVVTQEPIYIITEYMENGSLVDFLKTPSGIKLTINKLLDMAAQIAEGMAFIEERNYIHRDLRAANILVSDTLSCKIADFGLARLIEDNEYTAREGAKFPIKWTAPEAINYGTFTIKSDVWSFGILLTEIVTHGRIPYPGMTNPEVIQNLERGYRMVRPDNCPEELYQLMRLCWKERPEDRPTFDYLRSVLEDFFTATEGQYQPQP

C[C@H]1C[C@H]2[C@@H]3CCC4=CC(=O)C=C[C@]4(C)[C@@]3(F)[C@@H](O)C[C@]2(C)[C@@]1(O)C(=O)CO [BETAMETHASONE]
Not Active: IC50 (Melanocortin receptor 3) | IC50 [1] | Ki [1] | IC50 (Substance-K receptor) | IC50 [2] | Ki [2] | IC50 [3] | IC50 (Cytochrome P450 1A2) | Ki (Cytochrome P450 1A2) | IC50 [4] | IC50 [5]

CC(C)NCC(O)COc1ccc(CC(N)=O)cc1 (stereo not given) [ATENOLOL]
Not Active: IC50 (Melanocortin receptor 3) | IC50 [1] | Ki [1] | IC50 (Substance-K receptor) | IC50 [2] | Ki [2] | IC50 [3] | IC50 [4] | IC50 [5]

O=C1c2ccccc2C(=O)C1c1ccccc1 [PHENINDIONE]
Not Active: IC50 (Melanocortin receptor 3) | IC50 [1] | Ki [1] | IC50 (Substance-K receptor) | IC50 [2] | Ki [2] | IC50 [3] | IC50 (Cytochrome P450 1A2) | Ki (Cytochrome P450 1A2) | IC50 [4] | IC50 [5]

CCCCCCNC(=O)n1cc(F)c(=O)[nH]c1=O [CARMOFUR]
Not Active: IC50 (Melanocortin receptor 3) | IC50 [1] | Ki [1] | IC50 (Substance-K receptor) | IC50 [2] | Ki [2] | IC50 [3] | IC50 (Cytochrome P450 1A2) | Ki (Cytochrome P450 1A2) | IC50 [4] | IC50 [5]

O=c1[nH]cnc2c1ncn2[C@H]1CC[C@@H](CO)O1 [DIDANOSINE]
Not Active: IC50 (Melanocortin receptor 3) | IC50 [1] | Ki [1] | IC50 (Substance-K receptor) | IC50 [2] | Ki [2] | IC50 [3] | IC50 (Cytochrome P450 1A2) | Ki (Cytochrome P450 1A2) | IC50 [4] | IC50 [5]

CC(=O)Nc1ccc2c(c1)Cc1ccccc1-2 [2-ACETYLAMINOFLUORENE]
Not Active: IC50 (Melanocortin receptor 3) | IC50 [1] | Ki [1] | IC50 (Substance-K receptor) | IC50 [2] | Ki [2] | IC50 [3] | IC50 [4] | IC50 [5]

CC(C)(c1ccc(O)cc1)c1ccc(O)cc1 [BISPHENOL A]
Not Active: IC50 (Melanocortin receptor 3) | IC50 [1] | Ki [1] | IC50 (Substance-K receptor) | IC50 [2] | Ki [2] | IC50 [3] | IC50 (Cytochrome P450 1A2) | Ki (Cytochrome P450 1A2) | IC50 [4] | IC50 [5]

CO[C@H]1O[C@@H]2O[C@@]3(C)CC[C@H]4[C@H](C)CC[C@@H]([C@H]1C)[C@@]24OO3
Not Active: IC50 (Melanocortin receptor 3) | IC50 [1] | Ki [1] | IC50 (Substance-K receptor) | IC50 [2] | Ki [2] | IC50 [3] | IC50 (Cytochrome P450 1A2) | Ki (Cytochrome P450 1A2) | IC50 [4] | IC50 [5]

C#C[C@]1(O)CC[C@H]2[C@@H]3CCC4=CC(=O)CC[C@@H]4[C@H]3CC[C@@]21C [NORETHINDRONE]
Not Active: IC50 (Melanocortin receptor 3) | IC50 [1] | Ki [1] | IC50 (Substance-K receptor) | IC50 [2] | Ki [2] | IC50 [3] | IC50 (Cytochrome P450 1A2) | Ki (Cytochrome P450 1A2) | IC50 [4] | IC50 [5]

CN(Cc1cc(Br)cc(Br)c1N)C1CCCCC1 [BROMHEXINE]
Not Active: IC50 (Melanocortin receptor 3) | IC50 [1] | Ki [1] | IC50 (Substance-K receptor) | IC50 [2] | Ki [2] | IC50 [3] | IC50 (Cytochrome P450 1A2) | Ki (Cytochrome P450 1A2) | IC50 [4] | IC50 [5]

CC12CCC(CC1=O)C2(C)C (stereo not given) [CAMPHOR]
Not Active: IC50 (Melanocortin receptor 3) | IC50 [1] | Ki [1] | IC50 (Substance-K receptor) | IC50 [2] | Ki [2] | IC50 [3] | IC50 (Cytochrome P450 1A2) | Ki (Cytochrome P450 1A2) | IC50 [4] | IC50 [5]

C[C@@H]1[C@H](O)[C@@H](C)/C=C/C=C/C=C/C=C/C=C/C=C/C=C/[C@H](O[C@@H]2O[C@H](C)[C@@H](O)[C@H](N)[C@@H]2O)C[C@@H]2O[C@](O)(C[C@@H](O)C[C@@H](O)[C@H](O)CC[C@@H](O)C[C@@H](O)CC(=O)O[C@H]1C)C[C@H](O)[C@H]2C(=O)O [AMPHOTERICIN B]
Not Active: IC50 (Melanocortin receptor 3) | IC50 [1] | Ki [1] | IC50 (Substance-K receptor) | IC50 [2] | Ki [2] | IC50 [3] | IC50 (Cytochrome P450 1A2) | Ki (Cytochrome P450 1A2) | IC50 [4] | IC50 [5]

CCN(CCO)CCCC(C)Nc1ccnc2cc(Cl)ccc12 (stereo not given) [HYDROXYCHLOROQUINE]
Not Active: IC50 (Melanocortin receptor 3) | IC50 [1] | Ki [1] | IC50 (Substance-K receptor) | IC50 [2] | Ki [2] | IC50 [3] | IC50 [4] | IC50 [5]

O=c1[nH]c2ccccc2c2ccccc12
Not Active: IC50 (Melanocortin receptor 3) | IC50 [1] | Ki [1] | IC50 (Substance-K receptor) | IC50 [2] | Ki [2] | IC50 [3] | IC50 [4] | IC50 [5]

COc1cc(NC(C)CCCN)c2ncccc2c1 (stereo not given) [PRIMAQUINE]
Not Active: IC50 (Melanocortin receptor 3) | IC50 [1] | Ki [1] | IC50 (Substance-K receptor) | IC50 [2] | Ki [2] | IC50 [3] | IC50 [4] | IC50 [5]

O=C(O)CNCP(=O)(O)O [GLYPHOSATE]
Not Active: IC50 (Melanocortin receptor 3) | IC50 [1] | Ki [1] | IC50 (Substance-K receptor) | IC50 [2] | Ki [2] | IC50 [3] | IC50 [4] | IC50 [5]

c1ccc2c(c1)Nc1ccccc1S2 [PHENOTHIAZINE]
Not Active: IC50 (Melanocortin receptor 3) | IC50 [1] | Ki [1] | IC50 (Substance-K receptor) | IC50 [2] | Ki [2] | IC50 [3] | IC50 [4] | IC50 [5]

CC(N)Cc1c[nH]c2ccc(OCc3cccs3)cc12 (stereo not given) [BW-723C86]
Not Active: IC50 (Melanocortin receptor 3) | IC50 [1] | Ki [1] | IC50 (Substance-K receptor) | IC50 [2] | Ki [2] | IC50 [3] | IC50 [4] | IC50 [5]

c1ccc(Cn2ccnc2)cc1
Not Active: IC50 (Melanocortin receptor 3) | IC50 [1] | Ki [1] | IC50 (Substance-K receptor) | IC50 [2] | Ki [2] | IC50 [3] | IC50 [4] | IC50 [5]

NS(=O)(=O)c1cc(C(=O)O)c(NCc2ccco2)cc1Cl [FUROSEMIDE]
Not Active: IC50 (Melanocortin receptor 3) | IC50 [1] | Ki [1] | IC50 (Substance-K receptor) | IC50 [2] | Ki [2] | IC50 [3] | IC50 [4] | IC50 [5]

Source: ChEMBL document CHEMBL1909046, “DrugMatrix in vitro pharmacology data”
